What all share (assay type): functional
In one assay the test system is Alternaria brassicae. Description: Antimicrobial activity against Alternaria brassicae at 50 ug/ml […] by poisoned food technique.
Another assay relates to Alternaria alternata. Description: Antimicrobial activity against Alternaria alternata at 50 ug/ml […] by poisoned food technique. The note with it: 120 h.
The next assay relates to Pyricularia oryzae. The experiment in a line: Antimicrobial activity against Pyricularia oryzae at 50 ug/ml after 5 days by poisoned food technique. The note with it: 120 h.
Assay [1] deals with Fusarium oxysporum f. sp. vasinfectum. The experiment in a line: Antimicrobial activity against Fusarium oxysporum f. sp. vasinfectum at 50 ug/ml […] by poisoned food technique. The note with it: 120 h.
The subject of a further assay is Fusarium graminearum. The experiment in a line: Antimicrobial activity against Fusarium graminearum at 50 ug/ml after 5 days by poisoned food technique. Conditions: 120 h.

Molecules are shown by their SMILES.

As to `O=[N+]([O-])c1ccc(C2Nc3ccccc3-n3c2cc2ccccc23)cc1` (stereo not given), the inhibition (in general, the relative decrease from the control value, in per cent) at 50 µg/mL with Alternaria brassicae amounted to 11.2%; in the assay on Alternaria alternata, 19.4%; in the assay on Pyricularia oryzae it was 5.8%; in assay [1], 9.2%; in the assay with Fusarium graminearum, 17.2%.
Taken in the same sequence, the figures for `Oc1ccc(C2Nc3ccccc3-n3c2cc2ccccc23)cc1` (stereo not given) were 31.4%, 58.3%, 50.8%, 39.2% and 52.1%.
On to `COc1cc(C2Nc3ccccc3-n3c2cc2ccccc23)ccc1O` (stereo not given), for which the inhibition at 50 µg/mL with Alternaria brassicae came out at 15.7%; with Alternaria alternata, 9.2%; in the assay on Pyricularia oryzae, 4.4%; in assay [1] it was 11%; with Fusarium graminearum, 15.7%.
In the case of `Cc1c2n(c3ccccc13)-c1ccccc1NC2c1ccc([N+](=O)[O-])cc1` (stereo not given), the inhibition at 50 µg/mL in the assay on Alternaria brassicae was 13.3%; in the assay on Alternaria alternata, 18.2%; with Pyricularia oryzae, 11.8%; in assay [1], 11.4%; in the assay on Fusarium graminearum it was 26.6%.
Consider `Cc1c2n(c3ccccc13)-c1ccccc1NC2c1ccc(O)cc1` (stereo not given), for which the inhibition at 50 µg/mL was 53% in the assay with Alternaria brassicae; 55.6% in the assay with Alternaria alternata; 46.5% with Pyricularia oryzae; 44% in assay [1]; 48% with Fusarium graminearum.
As to `Cc1cccc2c1cc1n2-c2ccccc2NC1c1ccc([N+](=O)[O-])cc1` (stereo not given), the inhibition at 50 µg/mL in the assay with Alternaria brassicae amounted to 10.4%; in the assay with Alternaria alternata it was 17.7%; in the assay on Pyricularia oryzae it was 10.1%; in assay [1], 5.3%; with Fusarium graminearum it was 24.6%.
As to `Cc1cccc2c1cc1n2-c2ccccc2NC1c1ccc(O)cc1` (stereo not given), the inhibition at 50 µg/mL worked out at 55.9% in the assay with Alternaria brassicae; 72.9% with Alternaria alternata; 50.8% in the assay on Pyricularia oryzae; 41.2% in assay [1]; 51.3% with Fusarium graminearum.
Taken in the same sequence, the figures for `Cc1cccc2c1cc1n2-c2ccccc2NC1c1ccccc1` (stereo not given) were 30.4%, 29.2%, 22.1%, 8.8% and 32%.
On to `Cc1cccc2c1cc1n2-c2ccccc2NC1c1ccc(N(C)C)cc1` (stereo not given), for which the inhibition at 50 µg/mL with Alternaria brassicae was found to be 10.4%; in the assay with Alternaria alternata, 19.8%; in the assay on Pyricularia oryzae, 7.7%; in assay [1], 6.9%; in the assay with Fusarium graminearum, 17.6%.
`COc1ccc(C2Nc3ccccc3-n3c2cc2c(C)cccc23)cc1` (stereo not given): the inhibition at 50 µg/mL with Alternaria brassicae was 7.2%; in the assay with Alternaria alternata, 14.9%; in the assay with Pyricularia oryzae, 15.1%; in assay [1] it was 9.7%; in the assay with Fusarium graminearum it was 12.2%.
The matching figures for `COc1cc(C2Nc3ccccc3-n3c2cc2c(C)cccc23)ccc1O` (stereo not given): 21%, 17.9%, 16%, 20.2% and 12.3%.
Regarding `Cc1cccc2c1cc1n2-c2ccccc2NC1c1ccccc1O` (stereo not given), the inhibition at 50 µg/mL in the assay with Alternaria brassicae was found to be 55.8%; with Alternaria alternata, 12%; with Pyricularia oryzae, 7.8%; in assay [1], 11.7%; in the assay with Fusarium graminearum it was 8.8%.
For `Cc1ccc2cc3n(c2c1)-c1ccccc1NC3c1ccc([N+](=O)[O-])cc1` (stereo not given), the inhibition at 50 µg/mL with Alternaria brassicae came out at 13%; with Alternaria alternata, 7.8%; with Pyricularia oryzae, 1.6%; in assay [1] it was 11.7%; with Fusarium graminearum it was 12.2%.
In the case of `Cc1ccc2cc3n(c2c1)-c1ccccc1NC3c1ccc(O)cc1` (stereo not given), the inhibition at 50 µg/mL in the assay on Alternaria brassicae was 49%; in the assay on Alternaria alternata, 56.3%; in the assay with Pyricularia oryzae it was 43.7%; in assay [1], 37.3%; in the assay with Fusarium graminearum it was 41.2%.
Turning to `N#Cc1ccc2c(c1)cc1n2-c2ccccc2NC1c1ccc([N+](=O)[O-])cc1` (stereo not given), the inhibition at 50 µg/mL with Alternaria brassicae is 52.4%; with Alternaria alternata it was 64.6%; in the assay on Pyricularia oryzae, 62.8%; in assay [1], 60.8%; in the assay on Fusarium graminearum it was 56.3%.
For the molecule `Cc1cccc2c1cc1n2-c2ccccc2NC1(C)c1ccccc1` (stereo not given), the inhibition at 50 µg/mL in the assay on Alternaria brassicae amounted to 29.9%; with Alternaria alternata, 32.7%; in the assay with Pyricularia oryzae it was 34.6%; in assay [1], 23.6%; in the assay on Fusarium graminearum it was 43%.
Taken in the same sequence, the figures for `Cc1c2n(c3ccccc13)-c1ccccc1NC2c1ccco1` (stereo not given) were 30.1%, 37.3%, 33.4%, 17.8% and 31.5%.
As for `Cc1cc(O)no1` [HYMEXAZOL], the inhibition at 50 µg/mL with Alternaria brassicae is 47.1%; with Alternaria alternata it was 68.8%; with Pyricularia oryzae it was 53.5%; in assay [1], 62.7%; in the assay with Fusarium graminearum it was 57%.

The record behind these values is ChEMBL document CHEMBL1770128, “Synthesis and antifungal activities of novel 5,6-dihydro-indolo[1,2-a]quinoxaline derivatives” (2011).
